Laboratory results as given in article PMC8279156, “Design, synthesis, HER2 inhibition and anticancer evaluation of new substituted 1,5-dihydro-4,1-benzoxazepines” (Journal of Enzyme Inhibition and Medicinal Chemistry, 2021).
Like-named read-outs stand apart in the source and are kept apart here.

Experiments:
isolated HER2 = isolated HER2 (Homo sapiens, UniProt P04626); assay: HER2 inhibition assay, radiometric protein kinase assay (33PanQinase Activity Assay); assay type: biochemical; settings: isolated HER2, radiometric assay, 10 concentrations in singlicate
Procedure: The IC50 profile of the target compounds was determined using isolated HER2. IC50 values were measured by testing 10 concentrations (1 × 10 ^−4 M to 3 × 10 ^−9 M) of each compound in singlicate. A radiometric protein kinase assay (33PanQinase® Activity Assay) was used for measuring the kinase activity of HER2. The assay was performed in 96-well FlashPlatesTM from PerkinElmer (Boston, MA) in a 50 µl reaction volume. […] The reaction cocktails were incubated at 30 °C for 60 min. The reaction was halted with 50 µl of 2% (v/v) H3PO4, plates were aspirated and washed two times with 200 µl 0.9% (w/v) NaCl. Incorporation of ^33Pi was determined with a microplate scintillation counter (Microbeta, Wallac, Waltham, MA).
Human epidermal growth factor receptor 2 (HER2) is overexpressed in about 20% of all breast cancers. […] This prompted us to evaluated compounds 7–9 for their in vitro HER2 inhibitory effect. The IC50 profile of the target compounds was determined against isolated HER2 using a radiometric assay (Table 1).

[1] = tested on: HCT-116 human colon cancer cell line; parameters: method as in PMID 21126804; settings: mean ± SD; cited from earlier work
[2] = tested on: SKBR3 human breast cancer cell line; parameters: method as in PMID 24946763; settings: mean ± SD; cited from earlier work
[3] = tested on: MCF-7 human breast cancer cell line; settings: cited from earlier work
[4] = tested on: A-375 human melanoma cancer cell line; assay: Proliferation assay (sulphorhodamine-B) in A-375; assay type: cell-based; settings: 72 h of treatment, mean ± SD, read-out: IC50 A375
Procedure: MCF-7, HCT-116, A-375 and SKBR cells were grown at 37 °C in an atmosphere containing 5% CO2, with Dulbecco’s modified Eagle Medium (DMEM) (Gibco, Grand Island, NY) supplemented with 10% heat-inactivated foetal bovine serum (FBS) (Gibco), 2% L-glutamine, 2.7% sodium bicarbonate, 1% Hepes buffer, 40 mg/L gentamicin and 500 mg/L ampicillin.
Compounds were dissolved in DMSO and stored at −20 °C. For each experiment, the stock solutions were further diluted in medium to obtain the desired concentrations. The final solvent concentration in cell culture was ≤ 0.1% v/v of DMSO, a concentration without any effect on cell replication. Parallel cultures of MCF-7, HCT-116, A375 and SKBR-3 cells in medium with DMSO were used as controls.
The effect of the compounds on cell viability was assessed using the sulphorhodamine-B colorimetric assay. Cells suspension (1 × 10^3 cells/well) were seeded onto 24-well plates and incubated for 24 h. The cells were then treated with different concentrations of drugs in their respective culture medium and maintained with the treatment for 3 days. Three days later, wells were aspirated and fresh medium and drug were added. Then cell cultures were maintained for 3 additional days. Thereafter, a Titertek Multiscan (Flow, Irvine, CA) at 492 nm was used. The linearity of the SRB assay was evaluated with a cell number for each cell stock before each cell growth experiment. The IC50 values were calculated from semi-logarithmic dose–response curves by linear interpolation. All the experiments were plated in triplicate wells and were carried out twice.
We then investigated the effects of the target compounds on cell proliferation on the human breast cancer cell lines MCF-7 and SKBR-3, the human colon carcinoma cell line HCT-116 and the human malignant melanoma cell line A-375. The antiproliferative activity of 7–9 was evaluated using sulphorhodamine-B colorimetric assay after 72 h of treatment (Table 3).
All experiments were conducted in duplicate and gave similar results. The data are mean ± SD of three independent determinations. MCF-7: human breast cancer cell line; SKBR3: human breast cancer cell line; HCT-116: human colon cancer cell line and A-375: human melanoma cancer cell line.

Chain of isolated HER2 (P04626 23-1255): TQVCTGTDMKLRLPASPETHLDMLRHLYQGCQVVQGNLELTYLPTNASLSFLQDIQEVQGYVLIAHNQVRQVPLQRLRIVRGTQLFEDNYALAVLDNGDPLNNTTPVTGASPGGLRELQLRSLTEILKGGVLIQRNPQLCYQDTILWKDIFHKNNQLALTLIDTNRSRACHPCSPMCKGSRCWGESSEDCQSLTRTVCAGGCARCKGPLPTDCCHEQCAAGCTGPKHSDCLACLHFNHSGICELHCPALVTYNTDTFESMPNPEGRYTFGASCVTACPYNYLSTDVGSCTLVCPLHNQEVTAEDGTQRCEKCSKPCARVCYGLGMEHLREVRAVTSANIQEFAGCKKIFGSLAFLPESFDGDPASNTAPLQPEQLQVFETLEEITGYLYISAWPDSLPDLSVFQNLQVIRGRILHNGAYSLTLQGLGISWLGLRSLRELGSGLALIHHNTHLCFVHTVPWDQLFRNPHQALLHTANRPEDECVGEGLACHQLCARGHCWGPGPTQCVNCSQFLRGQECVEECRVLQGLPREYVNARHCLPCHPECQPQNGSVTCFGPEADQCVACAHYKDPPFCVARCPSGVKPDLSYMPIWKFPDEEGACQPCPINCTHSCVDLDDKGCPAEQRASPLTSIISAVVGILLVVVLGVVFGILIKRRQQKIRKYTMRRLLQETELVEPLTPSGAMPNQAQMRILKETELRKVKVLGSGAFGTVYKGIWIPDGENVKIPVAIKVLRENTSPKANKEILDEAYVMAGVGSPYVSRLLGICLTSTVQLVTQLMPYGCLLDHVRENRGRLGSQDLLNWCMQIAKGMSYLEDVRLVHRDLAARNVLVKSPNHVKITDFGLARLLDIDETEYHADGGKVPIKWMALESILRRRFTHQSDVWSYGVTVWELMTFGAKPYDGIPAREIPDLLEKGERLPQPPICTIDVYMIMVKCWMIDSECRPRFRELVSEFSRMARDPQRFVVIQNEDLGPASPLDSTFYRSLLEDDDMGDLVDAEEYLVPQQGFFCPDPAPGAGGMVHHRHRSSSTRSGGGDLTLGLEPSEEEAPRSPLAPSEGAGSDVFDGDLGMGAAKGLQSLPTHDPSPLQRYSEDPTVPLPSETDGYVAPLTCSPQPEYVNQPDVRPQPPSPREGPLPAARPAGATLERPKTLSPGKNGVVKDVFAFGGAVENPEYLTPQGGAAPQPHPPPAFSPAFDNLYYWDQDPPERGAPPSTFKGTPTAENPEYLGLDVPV

IC50 (isolated HER2): 27900 nM
IC50 [4]: 1050 ± 10 nM
SMILES: O=[N+]([O-])c1ccc(S(=O)(=O)N2CC(n3cnc4c(Cl)nc(Cl)nc43)OCc3ccccc32)cc1 (racemic) [Compound 3, (RS)-2,6-dichloro-9-[1-(p-nitrobenzenesulfonyl)-1,2,3,5-tetrahydro-4,1-benzoxazepine-3-yl]-9H-purine]
IC50 [1]: 570 ± 20 nM
IC50 [2]: 330 nM
IC50 ([3]; mean ± SD, read-out: IC50 MCF-7): 350 ± 10 nM
IC50 ([3]; previously described compounds, introduction, no reference number printed at the values, read-out: IC50 against the MCF-7 cell line): 355 nM
